Laboratory results published in patent US11577063B2, “Soluble microneedle containing ingredient for controlling release of neurotransmitters” (LG HOUSEHOLD & HEALTH CARE LTD., priority 2015, dated 2023).

Assays:
[1] = test system: C2C12 cells co-cultured with neuroblasts; test: Inhibition of muscle contraction by polyphenols, C2C12 cells co-cultured with neuroblasts; type: cell-based; settings: FIG. 7; for number of contractions of the C2C12 cells: 50 ppm polyphenol, 2 hours incubation, contractions counted for 30 seconds; for effect of inhibiting neurotransmitter release compared with myricetin: 50 ppm, 2 hours
Description: C2C12 cells were cultured in DMEM medium supplemented with 10% fetal calf serum and 1% antibiotic on a plate. Then, neuroblasts were co-cultured additionally on the same plate. When the C2C12 cells began contraction, the number of contractions by the C2C12 cells was measured for 30 seconds. Then, after completely removing the medium and washing 3 times with PBS, the cells were incubated for 2 hours after adding a calf serum-free medium and 50 ppm of the polyphenol compound. Then, the inhibition of muscle contraction was investigated by measuring the number of contractions of the C2C12 cells again for 30 seconds.

[2] = Maximum content of ampelopsin in cosmetic composition or microneedle; type: physicochemical
Description: When ampelopsin is prepared into a cosmetic composition, only less than 0.5% (based on 5% PEG-400 and 70% water) of ampelopsin can be contained in the cosmetic composition. In contrast, a microneedle prepared by the method according to the present disclosure may contain ampelopsin up to 5% based on the dry weight of the microneedle. Accordingly, a product containing the polyphenol at high concentration can be prepared.

[3] = target: SNARE complex (SNAP25, SynH3 and Vps proteins) (Homo sapiens, UniProt P60880+P63027+Q16623); test: Inhibition of SNARE complex formation (SDS-PAGE); type: biochemical; settings: FIG. 4; for ability of inhibiting SNARE complex formation compared with myricetin: at low concentrations; for inhibition of SNARE complex formation: polyphenol 1-50 ppm, room temperature 30 minutes, 12% SDS-PAGE
Sequence of SNARE complex (SNAP25, SynH3 and Vps proteins) (P60880 whole entry): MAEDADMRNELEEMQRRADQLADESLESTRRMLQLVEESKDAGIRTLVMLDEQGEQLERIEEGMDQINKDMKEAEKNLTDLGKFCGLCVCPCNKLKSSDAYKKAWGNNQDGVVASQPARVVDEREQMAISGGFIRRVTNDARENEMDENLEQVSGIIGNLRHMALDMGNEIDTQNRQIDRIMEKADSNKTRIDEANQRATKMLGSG
Sequence of SNARE complex (SNAP25, SynH3 and Vps proteins) (Q16623 191-266 limits assumed): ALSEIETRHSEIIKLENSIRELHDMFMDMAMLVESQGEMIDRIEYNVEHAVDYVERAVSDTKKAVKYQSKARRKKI
Sequence of SNARE complex (SNAP25, SynH3 and Vps proteins) (P63027 1-94 limits assumed): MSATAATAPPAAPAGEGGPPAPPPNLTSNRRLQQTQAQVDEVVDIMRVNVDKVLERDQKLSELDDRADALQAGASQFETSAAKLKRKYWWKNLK
Description: SDS-PAGE (sodium dodecyl sulfate-polyacrylamide gel electrophoresis) analysis was performed to investigate the inhibition of SNARE complex formation by polyphenols such as ampelopsin, kaempferol, myricetin, etc. It was investigated whether the SNARE complex formed when SNAP25, SynH3 and Vps proteins are mixed at a molar ratio of 1:1:1 was inhibited by the addition of the polyphenol compound at a concentration of 1-50 ppm. After adding the respective proteins dropwise into a 1-mL tube, the polyphenol compound was added and reaction was conducted at room temperature for 30 minutes. Then, it was investigated whether the SNARE complex was formed by electrophoresing on 12% SDS-PAGE.

[4] = test system: muscle cells and neuroblasts co-culture; test: Inhibition of muscle contraction in vitro by magnesium gluconate, co-cultured muscle cells and neuroblasts; type: cell-based; settings: various concentrations, observed 10 minutes after treatment; FIG. 9
Description: After co-culturing muscle cells and neuroblasts in vitro and treating with magnesium gluconate at various concentrations, decrease in the number of muscle contractions was observed 10 minutes later.

| Molecule | number of contractions of the C2C12 cells [1] | effect of inhibiting neurotransmitter release compared with myricetin [1] | ampelopsin content that can be contained in a cosmetic composition ([2]; based on 5% PEG-400 and 70% water) | ampelopsin content that the microneedle may contain ([2]; based on the dry weight of the microneedle) | ability of inhibiting SNARE complex formation compared with myricetin [3] | inhibition of SNARE complex formation [3] | number of muscle contractions [4] |
| --- | --- | --- | --- | --- | --- | --- | --- |
| O=C1c2c(O)cc(O)cc2O[C@H](c2cc(O)c(O)c(O)c2)[C@H]1O [ampelopsin] | reduce the number of contractions of the C2C12 cells | relatively higher effect of inhibiting the release than myricetin | less than 0.5% | up to 5% | better ability of inhibiting SNARE complex formation at low concentrations | effectively inhibit the SNARE complex formation in a concentration-dependent manner |  |
| O=c1c(O)c(-c2ccc(O)cc2)oc2cc(O)cc(O)c12 [kaempferol] | reduce the number of contractions of the C2C12 cells | relatively higher effect of inhibiting the release than myricetin |  |  | better ability of inhibiting SNARE complex formation at low concentrations | effectively inhibit the SNARE complex formation in a concentration-dependent manner |  |
| O=c1c(O)c(-c2cc(O)c(O)c(O)c2)oc2cc(O)cc(O)c12 [myricetin] | reduce the number of contractions of the C2C12 cells |  |  |  |  | effectively inhibit the SNARE complex formation in a concentration-dependent manner |  |
| magnesium gluconate |  |  |  |  |  |  | significant decrease in the number of muscle contractions as the concentration of magnesium gluconate was increased |
